Calls of active or inactive are those of the source. The calls are words filed in the database; no cut-off is given here.

Series [1] deals with Staphylococcus aureus. The experiment in a line: Bactericidal activity against Staphylococcus aureus ATCC 29213 at 8 times MIC incubated upto 8 hrs by time kill assay. It counts as functional, organism-based.
A short description of series [2]: Toxicity in KM mouse infected with methicillin-resistant Staphylococcus aureus clinical isolate M-4 assessed as histopathological abnormality in lungs at 5 mg/kg, sc measured after 24 hrs by H and E staining based analysis. It counts as organism-based. To be noted: in vivo.
The subject of series [3] is Staphylococcus aureus. The experiment in a line: Bactericidal activity against methicillin-resistant Staphylococcus aureus clinical isolate M-4 at 8 times MIC incubated upto 8 hrs by time kill assay. It counts as functional, organism-based.
The nature of series [4]: Toxicity in KM mouse infected with methicillin-resistant Staphylococcus aureus clinical isolate M-4 assessed as histopathological abnormality in heart at 5 mg/kg, sc measured after 24 hrs by H and E staining based analysis. In kind it is organism-based. To be noted: in vivo.
Series [5] in a line: Toxicity in KM mouse infected with methicillin-resistant Staphylococcus aureus clinical isolate M-4 assessed as histopathological abnormality in spleen at 5 mg/kg, sc measured after 24 hrs by H and E staining based analysis. In kind it is organism-based. To be noted: in vivo.
Series [6] can be described thus: Toxicity in KM mouse infected with methicillin-resistant Staphylococcus aureus clinical isolate M-4 assessed as histopathological abnormality in kidneys at 5 mg/kg, sc measured after 24 hrs by H and E staining based analysis. In kind it is organism-based. To be noted: in vivo.
Series [7] relates to Staphylococcus aureus. The experiment in a line: Antibacterial activity against methicillin-resistant Staphylococcus aureus clinical isolate M-4 infected in KM mouse assessed as survival rate of bacteria at 5 mg/kg, sc measured after 24 hrs relative to control. In kind it is functional.
Series [8] is described as follows: Toxicity in KM mouse infected with methicillin-resistant Staphylococcus aureus clinical isolate M-4 assessed as histopathological abnormality in liver at 5 mg/kg, sc measured after 24 hrs by H and E staining based analysis. In kind it is organism-based. To be noted: in vivo.

Regarding `CN[C@H](CC(C)C)C(=O)N[C@H]1C(=O)N[C@@H](CC(N)=O)C(=O)N[C@H]2C(=O)N[C@H]3C(=O)N[C@H](C(=O)N[C@H](C(=O)O)c4cc(O)cc(O)c4-c4cc3ccc4O)[C@H](O)c3ccc(c(Cl)c3)Oc3cc2cc(c3O[C@@H]2O[C@H](CO)[C@@H](O)[C@H](O)[C@H]2O[C@H]2C[C@](C)(N)[C@H](O)[C@H](C)O2)Oc2ccc(cc2Cl)[C@H]1O` [VANCOMYCIN], the result in series [1] and in series [3] was Active. Also, the Activity result in series [2], in series [4], in series [5], in series [6] and in series [8] was “Non-Toxic” in each case. Moreover, the survival at 5 mg/kg in series [7] was determined as 2.15%.

Values taken from ChEMBL document CHEMBL5512637, “Development of Membrane-Targeting Fluorescent 2-Phenyl-1H-phenanthro[9,10-d]imidazole-Antimicrobial Peptide Mimic Conjugates against Methicillin-Resistant Staphylococcus aureus” (J Med Chem, 2024).
